# Like-named read-outs stand apart in the source and are kept apart here.
# Columns and labels:
# [1] = test system: COX2 expression by normal human bladder smooth muscle cells; test: Cell-based ELISA of total COX2 in normal human bladder smooth muscle cells; conditions: for effect on the effect of carbachol and LPS on COX2 levels: LPS-induced responses: analgesic at either 5 μM or 50 μM
# Method: COX2 responses were analyzed by a Cell-Based ELISA using Human/mouse total COX2 immunoassay (R&D Systems), following the instructions of the manufacturer. Briefly, after cells fixation and permeabilization, a mouse anti-total COX2 and a rabbit anti-total GAPDH were added to the wells of the clear-bottom black 96-well cell culture microculture plates. After incubation and washes, an HRP-conjugated anti-mouse IgG and an AP-conjugated anti-rabbit IgG were added to the wells. Following another incubation and set of washes, the HRP- and AP-fluorogenic substrates were added. Finally, a Victor® V multilabel plate reader (PerkinElmer) was used to read the fluorescence emitted at 600 nm (COX2 fluorescence) and 450 nm (GAPDH fluorescence). Results are expressed as relative levels of total COX2 as determined by relative fluorescence unit (RFUs) and normalized to the housekeeping protein GAPDH.
# Normal human bladder smooth muscle cells were isolated by enzymatic digestion from macroscopically normal pieces of human bladder. Cells were expended in vitro by culture at 37° C. in a 5% CO2 atmosphere in RPMI 1640 supplemented with 10% fetal bovine serum, 15 mM HEPES, 2 mM L-glutamine, 100 U/ml penicillin, and […] of streptomycin and passage once a week by treatment with trypsin to detach cells followed by reseeding in a new culture flask. The first week of culture, the culture medium was supplemented with 0.5 ng/ml epidermal growth factor, 2 ng/ml fibroblast growth factor, and 5 μg/ml insulin.
# […] When no other effectors were added to the cells, 50 μl of RPMI 1640 without fetal bovine serum were added to the wells to adjust the final volume to 200 μl.
# After 24 hours of culture, 150 μl of culture supernatants were collected, spun down for 2 min at 8,000 rpm at 4° C. to remove cells and debris and stored at −70° C. for analysis of Prostaglandin E2 (PGE2) responses by ELISA. Cells were fixed, permeabilized and blocked for detection of COX2 using a fluorogenic substrate. In selected experiment cells were stimulated 12 hours in vitro for analysis of COX2, PGE2 and cytokine responses.
# COX2 and PGE2 responses were analyzed as described in Example 3. Cytokine responses were analyzed as described in Example 2.
# [2] = adult humans; cited from earlier work
# [3] = Serum levels of analgesic in human blood after oral therapeutic doses; type: in vivo; conditions: adult humans, conversion of mg/L by molecular weight
# Text: Table 3 summarizes the results of several studies that measured serum levels of analgesic after oral therapeutic doses in adult humans. […] Therefore, the doses of analgesic tested in vitro in Table 2 cover the range of concentrations achievable in vivo in humans.
# [4] = Inhibition of the urge to urinate in volunteer subjects; type: in vivo, human
# Text: Twenty volunteer subjects, both male and female were enrolled, each of which experienced premature urge or desire to urinate, interfering with their ability to sleep for a sufficient period of time to feel adequately rested. […] At least 14 subjects reported that they were able to rest better because they were not being awakened as frequently by the urge to urinate.
# [5] = Carbachol 10^−3 M plus analgesic 50 μM, carbachol alone 437, unstimulated 230, mean of duplicates
# [6] = Carbachol 10^−3 M plus analgesic 50 μM, carbachol alone 462, unstimulated 199
# [7] = LPS (10 μg/ml) plus analgesic 5 μM, LPS alone 633, unstimulated 199
# [8] = LPS (10 μg/ml) plus analgesic 5 μM, LPS alone 672, unstimulated 230, mean of duplicates
# [9] = LPS (10 μg/ml) plus analgesic 50 μM, LPS alone 633, unstimulated 199
# [10] = LPS (10 μg/ml) plus analgesic 50 μM, LPS alone 672, unstimulated 230, mean of duplicates
SMILES,COX2 responses to stimulus alone ([1]; no analgesic),"Total COX2 levels (Normalized RFUs) subject 2 ([1]; stimulus alone, no analgesic (Carbachol 10^−3 M; LPS 10 μg/ml), unstimulated 199)","Total COX2 levels (Normalized RFUs) subject 1 ([1]; stimulus alone, no analgesic (Carbachol 10^−3 M; LPS 10 μg/ml), unstimulated 230)",Maximum serum levels after oral therapeutic doses [2],Maximum serum levels after oral therapeutic doses [3],"Total COX2 levels (Normalized RFUs) subject 1 [1, 5]","Total COX2 levels (Normalized RFUs) subject 2 [1, 6]","Total COX2 levels (Normalized RFUs) subject 2 [1, 7]","Total COX2 levels (Normalized RFUs) subject 1 [1, 8]","Total COX2 levels (Normalized RFUs) subject 2 [1, 9]","Total COX2 levels (Normalized RFUs) subject 1 [1, 10]",effect on the effect of carbachol and LPS on COX2 levels [1],benefit of less frequent urges to urinate after several weeks of nightly use ([4]; several subjects),benefit after several days of abstaining from taking the dosages ([4]; subjects who had lost the benefit),"subjects who reported that they were able to rest better because they were not being awakened as frequently by the urge to urinate ([4]; twenty volunteer subjects, 400-800 mg as a single dose prior to bedtime)"
"C[N+](C)(C)CCOC(N)=O [Carbachol, carbachol]","induced low, but significant COX2 responses",462 Normalized RFUs,437 Normalized RFUs,–,–,–,–,–,–,–,–,–,–,–,–
COc1ccc2cc([C@H](C)C(=O)O)ccc2c1 [Naproxen],–,–,–,≤ 60 mg/L,≤ 260 µM,296 Normalized RFUs,354 Normalized RFUs,501 Normalized RFUs,458 Normalized RFUs,458 Normalized RFUs,409 Normalized RFUs,suppress,–,–,–
"CC(=O)Oc1ccccc1C(=O)O [Aspirin, Acetylsalicylic acid]",–,–,–,30 to 100 mg/L,–,312 Normalized RFUs,297 Normalized RFUs,491 Normalized RFUs,472 Normalized RFUs,484 Normalized RFUs,413 Normalized RFUs,suppress,–,–,–
"CC(=O)Nc1ccc(O)cc1 [Acetaminophen, N-acetyl-para-aminophenol]",–,–,–,11 to 18 mg/L,–,298 Normalized RFUs,310 Normalized RFUs,457 Normalized RFUs,428 Normalized RFUs,509 Normalized RFUs,399 Normalized RFUs,suppress,–,–,–
"CC(C)Cc1ccc(C(C)C(=O)O)cc1 (centres unmarked) [Ibuprofen, ibuprofen]",–,–,–,24 to 32 mg/L,–,–,–,–,–,–,–,–,no longer being realized,return of the benefit,At least 14 subjects

# From patent US10596127B2, “Composition for reducing the frequency of urination, method of making and use thereof” (WELLESLEY PHARMACEUTICALS, LLC, priority 2013, dated 2020)
